# Tested on: ASPC-1 tumor
# Assay: In vivo efficacy of ^225Ac therapy
# Settings: ASPC-1 tumor-bearing mice
# Description: In vivo efficacy of the ^177Lu labeled complexes and ^225Ac labeled complexes of the present application was evaluated in ASPC-1 tumor-bearing mice. For ^177Lu therapy study, animals in each group were dosed with vehicle or 0.6 mCi activity of the radiolabeled complexes at Day 1 and Day 5, respectively. For ^225Ac therapy studies, animals in each group were administered with a single dose of vehicle, 18, 37 or 74 KBq activity of the radiolabeled complexes, respectively.
# The tumor volume (V) was determined according to the equation (V=[…]×L×W×H) at different time points, where L is the longest axis and W is the perpendicular axis to L, and H is the perpendicular axis to L and W plane. Endpoint (sacrifice) criteria were defined as either when the tumor volume exceeded 1.5 cm^3, or 20% body weight loss.
structure (smiles),measurement,setting,value
COc1cccc(OC)c1-c1cc(C(=O)NC2(C(=O)O)C3CC4CC(C3)CC2C4)nn1-c1ccc(OCCCN(C)CCCN(C)C(=O)CN2CCN(CC(=O)[O-])CCN(CC(=O)[O-])CCN(CC(=O)[O-])CC2)cc1C(C)C.[225Ac+3] (centres unmarked) [^225Ac—I-7],tumor inhibition compared to the vehicle group,"single dose of 18, 37 or 74 KBq",significant tumor inhibition
same,dose sufficient to achieve the maximal effect,single dose,37 KBq
